Measurements: the NIST ThermoML archive (doi:10.1016/j.fluid.2017.03.025)
Values joined by “and” are separate entries in the source; they are usually repeats but may differ in a detail not shown here. Identical values can stand only once.

Experiment: wn = mass fraction of the nth substance listed
Settings: discharge crucible method; for mass density / viscosity: 101 kPa, Liquid

[Zn] [zinc] + [Ga]
Settings | mass density | surface tension liquid-gas | viscosity
323 K, w1 = 0.036 | 6081 kg/m3 | 722.9 mN/m | 1.576 mPa·s
373 K, w1 = 0.036 | 6049 kg/m3 | 719.2 mN/m | 1.336 mPa·s
423 K, w1 = 0.036 | 6018 kg/m3 | 715.6 mN/m | 1.139 mPa·s
423 K, w1 = 0.25 | 6205 kg/m3 | 733 mN/m | 2.596 mPa·s
473 K, w1 = 0.036 | 5989 kg/m3 | 712 mN/m | 1.018 mPa·s
473 K, w1 = 0.25 | 6175 kg/m3 | 728.9 mN/m | 2.037 mPa·s
523 K, w1 = 0.036 | 5956 kg/m3 | 708.4 mN/m | 0.924 mPa·s
523 K, w1 = 0.25 | 6146 kg/m3 | 723.5 mN/m | 1.733 mPa·s
573 K, w1 = 0.036 | 5929 kg/m3 | 704.9 mN/m | 0.845 mPa·s
573 K, w1 = 0.25 | 6115 kg/m3 | 718.9 mN/m | 1.529 mPa·s
573 K, w1 = 0.5 | 6355 kg/m3 | 748.5 mN/m | 2.861 mPa·s
623 K, w1 = 0.036 | 5896 kg/m3 | 701.2 mN/m | 0.779 mPa·s
623 K, w1 = 0.25 | 6079 kg/m3 | 714.6 mN/m | 1.375 mPa·s
623 K, w1 = 0.5 | 6323 kg/m3 | 739.8 mN/m | 2.394 mPa·s
623 K, w1 = 0.75 | 6584 kg/m3 | 773.5 mN/m | 3.588 mPa·s
673 K, w1 = 0.036 | 5866 kg/m3 | 697.7 mN/m | 0.736 mPa·s
673 K, w1 = 0.25 | 6052 kg/m3 | 709.7 mN/m | 1.261 mPa·s
673 K, w1 = 0.5 | 6302 kg/m3 | 733.3 mN/m | 2.112 mPa·s
673 K, w1 = 0.75 | 6557 kg/m3 | 764.1 mN/m | 3.019 mPa·s
673 K, w1 = 0.9 | 6721 kg/m3 | 792.3 mN/m | 3.809 mPa·s
723 K, w1 = 0.036 | 5836 kg/m3 | 693.8 mN/m and 694.3 mN/m | 0.709 mPa·s and 0.699 mPa·s
723 K, w1 = 0.25 | 6024 kg/m3 and 6025 kg/m3 | 705.2 mN/m and 705.5 mN/m | 1.148 mPa·s and 1.159 mPa·s
723 K, w1 = 0.5 | 6277 kg/m3 and 6276 kg/m3 | 725.3 mN/m | 1.875 mPa·s and 1.871 mPa·s
723 K, w1 = 0.75 | 6537 kg/m3 and 6536 kg/m3 | 753.4 mN/m and 754 mN/m | 2.625 mPa·s
723 K, w1 = 0.9 | 6699 kg/m3 and 6700 kg/m3 | 780.5 mN/m and 780.4 mN/m | 3.225 mPa·s and 3.241 mPa·s
723 K, w1 = 1 | 6831 kg/m3 | 812.1 mN/m | 3.721 mPa·s
773 K, w1 = 0.036 | 5806 kg/m3 | 690.8 mN/m | 0.662 mPa·s
773 K, w1 = 0.25 | 5998 kg/m3 | 700.4 mN/m | 1.098 mPa·s
773 K, w1 = 0.5 | 6249 kg/m3 | 717.7 mN/m | 1.693 mPa·s
773 K, w1 = 0.75 | 6512 kg/m3 | 744.6 mN/m | 2.323 mPa·s
773 K, w1 = 0.9 | 6679 kg/m3 | 768.7 mN/m | 2.813 mPa·s
823 K, w1 = 0.9 | 6657 kg/m3 | 755.5 mN/m | 2.517 mPa·s
